Target: T1, BACE1 enzyme (Homo sapiens, UniProt P56817)
T1 construct: endogenous in cells; washed 48,000 x g membrane pellet / cell homogenate
Test: Radioligand displacement assay with a radiolabeled BACE inhibitor
Format: binding
Conditions: HEK293-9B.A1 cell homogenate overexpressing BACE1, 1 nM radioligand, pH 5.0, 1.5 hr at 25° C.; read-out: Activity Rating (activity based on IC50 values)
Description: There are a number of methods by which inhibitors of the BACE enzyme can be identified experimentally. The enzyme can be obtained from membrane samples from natural tissues or cultured cells or can be expressed recombinantly in a host cell by well known methods of molecular biology. The whole enzyme or a portion thereof can be expressed, for example, in bacterial, insect or mammalian cells to obtain a catalytically active enzyme species. The enzymatic activity and/or ligand binding capability of the enzyme can be assessed within these membrane samples, or the enzyme can be purified to varying extents. As an illustrative example, the nucleic acid sequence encoding the pro and catalytic domains of human BACE can be appended on the 5′ end with an untranslated and signal sequence from the gene for acetylcholinesterase, and on the 3′ end with a sequence encoding a poly-histidine tag. This cDNA can then be expressed in Drosophila melanogaster S2 cells in which the signal and pro sequences of the transcribed/translated protein are removed by cellular proteases and the catalytic domain, appended by a C-terminal poly-histidine tag, is secreted out into the cellular medium. The enzyme can then be purified from the culture medium by nickel affinity chromatography by methods well known to those trained in the art [Mallender, W. et al., “Characterization of recombinant, soluble beta-secretase from an insect cell expression system.” Mol. Pharmacol. 2001, 59: 619-626]. Similar strategies for expressing and purifying various forms of BACE in bacterial, mammalian and other cell types would be known to one skilled in the art. A preferred method for determining the potency of a test compound in binding to the BACE enzyme is by monitoring the displacement of a suitable radioligand.
Radioligand displacement assays with a radiolabeled BACE inhibitor (WO 2004 013098, compound 3, where the methoxy group is substituted for C(^3H)3) were carried out using standard methods (Keen, M. (1999) in Receptor Binding Techniques (Walker, J. M. ed) p. 106 Humana Press, Totowa, N.J.). The HEK293-9B.A1 cell line, which overexpresses the BACE1 enzyme, was derived from HEK293 cells (Simmons, N. L. (1990) A cultured human renal epithelioid cell line responsive to vasoactive intestinal peptide. Exp. Physiol. 75:309-19.) by RAGE™ (Harrington, J. J. et al. (2001) Creation of genome-wide protein expression libraries using random activation of gene expression. Nat. Biotechnol. 19:440-5.; U.S. Pat. Nos. 6,410,266 and 6,361,972). T225 flask cultures of HEK293-9B.A1 were grown to 80% confluency in DMEM supplemented with 2 mM L-glutamine, 10 μg/mL penicillin, 10 μg/mL streptomycin, 3 μg/mL puromycin, 100 nM methotrexate, and 10% fetal bovine serum (Invitrogen, Carlsbad, Calif.), harvested, and resuspended at 2×10^8 cells per 10 mL of lysis buffer consisting of 50 mM HEPES pH 7.0 containing a protease inhibitor cocktail of AEBSF 104 μM, aprotinin 80 nM, leupeptin 2 μM, bestatin 4 μM, pepstatin A 1.5 μM, and E-64 1.4 μM (0.1% of protease inhibitor cocktail P8340, Sigma-Aldrich, St. Louis, Mo.) at 4° C. The resuspended cells were homogenized using a Polytron (Brinkman, Westbury, N.Y.) at setting 6 for 10 sec., then centrifuged at 48,000×g for 10 min. The resulting pellet was washed by repeating the resuspension, homogenization and centrifugation steps. The final pellet was resuspended in buffer at 4° C. to yield a total protein concentration of 5 mg/mL, then aliquots were frozen in liquid nitrogen for further storage at −70° C. Immediately before carrying out a binding assay, an aliquot of cell homogenate was thawed and diluted to a concentration of 100 μg/mL in assay buffer consisting of 50 mM HEPES pH 5.0 and 0.1% CHAPSO. […]

T1 sequence (P56817 46-501): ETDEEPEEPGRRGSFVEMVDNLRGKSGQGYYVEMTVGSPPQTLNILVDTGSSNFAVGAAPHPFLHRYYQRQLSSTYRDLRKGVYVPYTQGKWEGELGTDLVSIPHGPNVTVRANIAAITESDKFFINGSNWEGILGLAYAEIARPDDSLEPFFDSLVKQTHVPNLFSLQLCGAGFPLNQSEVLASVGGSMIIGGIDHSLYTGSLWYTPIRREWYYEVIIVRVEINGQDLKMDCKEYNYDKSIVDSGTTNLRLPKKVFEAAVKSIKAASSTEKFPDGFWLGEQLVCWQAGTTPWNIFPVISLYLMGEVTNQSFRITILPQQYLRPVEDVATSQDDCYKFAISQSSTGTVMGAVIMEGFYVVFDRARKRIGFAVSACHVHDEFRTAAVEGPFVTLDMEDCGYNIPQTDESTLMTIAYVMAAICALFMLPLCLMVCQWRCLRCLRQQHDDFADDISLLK

Row | SMILES | IC50
1 | CCCC[C@H](C)C(=O)N(C)[C@H]1CCCCO[C@@H]2C[C@H](NC[C@@H](O)[C@H](Cc3cc(Cl)cc(Cl)c3)NC1=O)c1cc(OC)ccc12 [Example 49, (S)-2-methyl-hexanoic acid ((1S,4R,5S,8S,14R)-5-(3,5-dichloro-benzyl)-4-hydroxy-18-methoxy-7-oxo-13-oxa-2,6-diaza-tricyclo[12.6.1.0^15,20]henicosa-15(20),16,18-trien-8-yl)-methyl-amide] | < 10 nM
2 | CCOc1ccsc1C(=O)N(C)[C@H]1CC=CCO[C@@H]2C[C@H](NC[C@@H](O)[C@H](Cc3ccccc3)NC1=O)c1cc(OC)ccc12 [Example 20, 3-ethoxy-thiophene-2-carboxylic acid ((1S,4R,5S,8S,14R)-5-benzyl-4-hydroxy-18-methoxy-7-oxo-13-oxa-2,6-diaza-tricyclo[12.6.1.0^15,20]henicosa-10,15(20),16,18-tetraen-8-yl)-methyl-amide] | 10 to 500 nM
3 | CCCCCS(=O)(=O)N(C)[C@H]1CCCCO[C@H]2Cc3ccc(OC)cc3[C@H]2NC[C@@H](O)[C@H](Cc2ccccc2)NC1=O [Example 29, pentane-1-sulfonic acid ((1S,7S,10S,11R,14R)-10-benzyl-11-hydroxy-17-methoxy-8-oxo-2-oxa-9,13-diaza-tricyclo[12.7.0.0^15,20]henicosa-15(20),16,18-trien-7-yl)-methyl-amide] | 10 to 500 nM
4 | CCCC[C@H](C)C(=O)N(C)[C@H]1CC=CCO[C@H]2CC[C@H](C2)NC[C@@H](O)[C@H](Cc2cc(F)cc(F)c2)NC1=O (racemic) [Example 25, (S)-2-methyl-hexanoic acid [(1R,4R,5S,8S,14S)-5-(3,5-difluoro-benzyl)-4-hydroxy-7-oxo-13-oxa-2,6-diaza-bicyclo[12.2.1]heptadec-10-en-8-yl]-methyl-amide and (S)-2-methyl-hexanoic acid [(1S,4R,5S,8S,14R)-5-(3,5-difluoro-benzyl)-4-hydroxy-7-oxo-13-oxa-2,6-diaza-bicyclo[12.2.1]heptadec-10-en-8-yl]-methyl-amide] | 10 to 500 nM
5 | COc1ccc2c(c1)[C@@H]1C[C@H]2OCC=CC[C@H](N(C)C(=O)C(C)CC(F)(F)F)C(=O)N[C@@H](Cc2cc(F)cc(F)c2)[C@H](O)CN1 (single isomer, unassigned; diastereomer a) [Example 21] | < 10 nM
6 | COc1ccc2c(c1)[C@@H]1C[C@H]2NCCCC[C@H](N(C)S(=O)(=O)CCC(F)(F)F)C(=O)N[C@@H](Cc2ccccc2)[C@H](O)CN1 (single isomer, unassigned) [Example 52] | 10 to 500 nM
7 | CCCC(CCC)C(=O)N(C)[C@H]1CC=CCOCCC(c2cccc(OC)c2)NC[C@@H](O)[C@H](Cc2ccccc2)NC1=O (stereo partly drawn) [Example 19, N-((7R,8S,11S)-8-benzyl-7-hydroxy-4-(3-methoxyphenyl)-10-oxo-1-oxa-5,9-diazacyclopentadec-13-en-11-yl)-N-methyl-2-propylpentanamide] | > 500 nM
8 | CCCC[C@H](C)C(=O)N(C)[C@H]1CC=CCOC[C@@H](c2ccccc2)NC[C@@H](O)[C@H](Cc2cc(F)cc(F)c2)NC1=O [Example 18, (S)-2-methyl-hexanoic acid [(3R,6R,7S,10S)-7-(3,5-difluoro-benzyl)-6-hydroxy-9-oxo-3-phenyl-1-oxa-4,8-diaza-cyclotetradec-12-en-10-yl]-methyl-amide] | > 500 nM
9 | CC(C)(C)OC(=O)N1CC2CN(c3ccc4c(c3)[C@@H]3C[C@H]4OCC=CCCCC(=O)N[C@@H](Cc4cc(F)cc(F)c4)[C@H](O)CN3)CC2C1 (stereo partly drawn) [Example 96, 5-[(1S,4R,5S,15R)-5-(3,5-difluoro-benzyl)-4-hydroxy-7-oxo-14-oxa-2,6-diaza-tricyclo[13.6.1.0^16,21]docosa-11,16(21),17,19-tetraen-19-yl]-hexahydro-pyrrolo[3,4-c]pyrrole-2-carboxylic acid tert-butyl ester] | 10 to 500 nM
10 | CCCCCS(=O)(=O)N(C)[C@H]1CC=CCO[C@@H]2C[C@H](NC[C@@H](O)[C@H](Cc3cc(Cl)cc(Cl)c3)NC1=O)c1cc(OC)ccc12 [Example 43] | < 10 nM
11 | CC(C)Oc1ccc2c(c1)[C@@H]1C[C@H]2OCC=CCCCC(=O)N[C@@H](Cc2cc(F)cc(F)c2)[C@H](O)CN1 [Example 78, (1S,4R,5S,15R)-5-(3,5-difluoro-benzyl)-4-hydroxy-19-isopropoxy-14-oxa-2,6-diaza-tricyclo[13.6.1.0^16,21]docosa-11,16(21),17,19-tetraen-7-one] | < 10 nM
12 | CCCC[C@H]1CC=CCO[C@@H]2C[C@H](NC[C@@H](O)[C@H](Cc3cc(F)cc(F)c3)NC1=O)c1cc(OC)ccc12 [Example 8, (1S,4R,5S,8S,14R)-8-butyl-5-(3,5-difluoro-benzyl)-4-hydroxy-18-methoxy-13-oxa-2,6-diaza-tricyclo[12.6.1.0^15,20]henicosa-10,15(20),16,18-tetraen-7-one] | > 500 nM
13 | COc1ccc2c(c1)[C@@H]1CC2N(C)CCCCC[C@H](N(C)S(=O)(=O)CCC(F)(F)F)C(=O)N[C@@H](Cc2ccccc2)[C@H](O)CN1 [Example 56, 3,3,3-trifluoro-propane-1-sulfonic acid ((1S,4R,5S,8S)-5-benzyl-4-hydroxy-19-methoxy-14-methyl-7-oxo-2,6,14-triaza-tricyclo[13.6.1.0^16,21]docosa-16(21),17,19-trien-8-yl)-methyl-amide] | 10 to 500 nM
14 | CN([C@H]1CCC=CCO[C@@H]2C[C@H](NC[C@@H](O)[C@H](Cc3ccccc3)NC1=O)c1cc(Br)ccc12)S(=O)(=O)CCC(F)(F)F [Example 61, 3,3,3-trifluoro-propane-1-sulfonic acid ((1S,4R,5S,8S,15R)-5-benzyl-19-bromo-4-hydroxy-7-oxo-14-oxa-2,6-diaza-tricyclo[13.6.1.0^16,21]docosa-11,16(21),17,19-tetraen-8-yl)-methyl-amide] | < 10 nM
15 | CC(C)CCc1ccc2c(c1)[C@@H]1C[C@H]2OCC=CCCCC(=O)N[C@@H](Cc2cc(F)cc(F)c2)[C@H](O)CN1 [Example 69, (1S,4R,5S,15R)-5-(3,5-difluoro-benzyl)-4-hydroxy-19-(3-methyl-butyl)-14-oxa-2,6-diaza-tricyclo[13.6.1.0^16,21]docosa-11,16(21),17,19-tetraen-7-one] | 10 to 500 nM
16 | O=C1CCCC=CCO[C@@H]2C[C@H](NC[C@@H](O)[C@H](Cc3cc(F)cc(F)c3)N1)c1cc(-c3cc(C(F)(F)F)cc(C(F)(F)F)c3)ccc12 [Example 91, (1S,4R,5S,15R)-19-(3,5-bis-trifluoromethyl-phenyl)-5-(3,5-difluoro-benzyl)-4-hydroxy-14-oxa-2,6-diaza-tricyclo[13.6.1.0^16,21]docosa-11,16(21),17,19-tetraen-7-one] | > 500 nM
17 | CCCC[C@H](C)C(=O)N(C)[C@H]1CC=CCO[C@@H]2C[C@H](NC[C@@H](O)[C@H](Cc3ccccc3)NC1=O)c1cc(C)cc(C)c12 [Example 100, (S)-2-methyl-hexanoic acid ((1S,4R,5S,8S,14R)-5-benzyl-4-hydroxy-16,18-dimethyl-7-oxo-13-oxa-2,6-diaza-tricyclo[12.6.1.0^15,20]henicosa-10,15(20),16,18-tetraen-8-yl)-methyl-amide] | < 10 nM
18 | COc1ccc2c(c1)[C@@H]1C[C@H]2COCC=CC[C@H](N(C)S(=O)(=O)CCC(F)(F)F)C(=O)N[C@@H](Cc2ccccc2)[C@H](O)CN1 (single isomer, unassigned; isomer a) [Example 35] | < 10 nM
